System: HepG2 cells
Test: Imaging oxidized thiols in HepG2 cells under oxidative stress by NAI/NAIA couple
Assay type: cell-based
Details: 50 μM, 10 min
Protocol: Imaging Oxidized Thiols in HepG2 Cells Under Oxidative Stress by NAI/NAIA Couple
HepG2 cells were plated on a 8-well Nunc Lab-Tek chambered slide system and allowed to grow in complete medium at 37° C. with 5% CO2 to ca. 70% confluency. The cells were then pretreated with solvent vehicles, H2O2 (0.5 or 1 mM) or H2O2 (1 mM)+NAC (5 mM) in complete medium for 15 min at 37° C. The cells were washed with PBS and incubated with NAI compound 3 (50 μM) in complete medium for 10 min at 37° C. After that, the cells were washed with PBS and fixed by 4% paraformaldehyde in PBS at room temperature for 15 min. […] The cells were washed thrice with PBS and then imaged in PBS by confocal fluorescence microscopy.
Confocal fluorescence microscopy imaging was performed with a Zeiss laser scanning microscope 880 with a 20× water-immersion objective lens using ZEN 2.3 (Black Version) software (Carl Zeiss) with 3× magnification zoom-in. […] A region of interest (ROI) was created around individual cell, and cellular fluorescence intensity was measured. The reported average cellular fluorescence intensity was determined by averaging the measured intensity from 30 different cells from 3 different biological replicates/group. […]
Therefore, we sought to utilize the NAI/NAIA couple to capture oxidized thiols and image them by confocal fluorescence microscopy (FIGS. 12A-12B). […]

Compound: C=CC(=O)N1CCc2cc(OCC(=O)OC(C)(C)C)ccc21 [compound 3b]
- trapping of free thiols in live cells: excellent trapping of free thiols

From patent US20240103005A1, “N-ACRYLOYLINDOLES AND METHODS OF USE” (The University of Hong Kong, priority 2022, published 2024)
